Test [1] concerns the target T1, Zea mays EPSPS variant Zm-T103I (Zea mays, UniProt O24566, T102I).
T1 construct: native maize plus T103I; E. coli BL21(DE3), Ni-NTA purified
T1 sequence (O24566 with tags, fused parts or gaps T102I): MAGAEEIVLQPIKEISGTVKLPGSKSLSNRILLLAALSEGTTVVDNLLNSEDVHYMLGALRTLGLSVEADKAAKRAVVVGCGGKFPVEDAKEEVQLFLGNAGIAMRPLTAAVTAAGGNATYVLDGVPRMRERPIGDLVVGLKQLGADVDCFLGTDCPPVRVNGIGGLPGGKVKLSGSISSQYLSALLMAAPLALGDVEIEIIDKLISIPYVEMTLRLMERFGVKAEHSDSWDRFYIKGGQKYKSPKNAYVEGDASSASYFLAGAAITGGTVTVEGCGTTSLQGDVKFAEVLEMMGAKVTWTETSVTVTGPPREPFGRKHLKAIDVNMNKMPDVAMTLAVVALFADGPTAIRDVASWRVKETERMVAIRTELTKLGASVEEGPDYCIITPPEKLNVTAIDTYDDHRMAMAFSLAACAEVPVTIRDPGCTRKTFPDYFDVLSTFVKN
Description: Rapid two-rate method for (kcat/KM)*KI, Zm-T103I. It counts as biochemical. The source says: (§1) There are several practical considerations for accurately estimating (kcat/KM)*KI with the rapid method. […] 2) The inhibitor concentration must be adjusted so as to obtain a degree of inhibition that minimally amplifies the error in the term v0-vi in Equation 3. If inhibition is too little, v0-vi will be small, and the error in the multiplier vi×v0/(v0-vi) will be large. […] 3) Substrate concentration should be set at the approximate KM of the parental variant(s), subject to the sensitivity of the assay. High substrate concentration obscures sensitivity to the inhibitor and reduces stringency for capturing improvements in KM. Depending on the necessity for speed, there exists opportunity for customizing enzyme and inhibitor concentrations. […] The rapid method was repeated for those and obtained data that correlated better with data obtained by substrate saturation analysis. For screening purposes however, that correlation step is not necessary. Conditions can be set so that variants with a pre-determined minimal fitness level are accurately quantified.
(§2) In Table 15, parameters above the heavy line for the rapid method were obtained under standard conditions. For variants shown below the heavy line, the rapid analysis was repeated with enzyme or glyphosate concentrations adjusted as needed to generate sufficient signal within the limits for linear initial rates.

Test [2] has as its target Zea mays EPSPS variant 868-H6 (A2R, A4W, A72Q, K84R, L98C, G102A, I208L, T279A, E302S, T361S, E391G, D402G, A416G, V438R, T441Q), SEQ ID NO:5 (Zea mays, UniProt O24566, A1R/A3W/A415G/A71Q/D401G/E301S/E390G/G101A/I207L/K83R/L97C/T278A/T360S/T440Q/V437R). Description: EPSPS substrate saturation kinetics, 868-H6. It counts as biochemical. The method, then:
EPSPS activity was determined by quantifying the phosphate generated from the EPSPS reaction. Release of inorganic phosphate was coupled to reaction with 2-amino-6-mercapto-7-methylpurine ribonucleoside, catalyzed by purine-nucleoside phosphorylase (M R Webb, Proc. Natl. Acad. Sci. 89:4884-4887, 1992). The absorbance change that occurs was monitored at 360 nm, where the extinction is 11,200 M^−1 cm^−1, with a Spectramax plate reader (Molecular Devices). To determine kinetic parameters, the varied substrate was present at seven concentrations (the eighth being the blank, containing no substrate) ranging from 4 to 400 uM and the unvaried substrate present at saturation. […] Reactions were monitored with a Spectramax plate reader. […] KI was then calculated from the following form of the Michaelis-Menten equation for competitive inhibition: KI=KM[I]/(KM app−KM) KM approximates the dissociation constant of the enzyme-substrate complex while kcat is the rate of conversion of substrate to product when the substrate concentration is saturating. kcat/KM is a widely accepted parameter for catalytic efficiency when substrate concentration is low (˜KM). […] The parameter kcat/KM×KI is used to quantify both catalytic efficiency and insensitivity and thus the overall fitness of the enzyme. […]

The subject of test [3] is Glycine max (93Y21) hairy root. Description: Hairy root growth from transformed soybean cotyledons with or without 25 uM glyphosate. In kind it is cell-based. Conditions: medium containing 25 uM glyphosate.
Test [4] deals with T2, Zea mays EPSPS variant Zm-P107L (Zea mays, UniProt O24566, P106L).
T2 construct: native maize plus P107L; E. coli BL21(DE3), Ni-NTA purified
Kind of test: Rapid two-rate method for (kcat/KM)*KI, Zm-P107L. It counts as biochemical.
Text: as §1, §2

Where [5] appears, read: rapid method, [E] 0.07 uM, [Gly] 1000 uM.

T2 sequence (O24566 entry or part of it P106L): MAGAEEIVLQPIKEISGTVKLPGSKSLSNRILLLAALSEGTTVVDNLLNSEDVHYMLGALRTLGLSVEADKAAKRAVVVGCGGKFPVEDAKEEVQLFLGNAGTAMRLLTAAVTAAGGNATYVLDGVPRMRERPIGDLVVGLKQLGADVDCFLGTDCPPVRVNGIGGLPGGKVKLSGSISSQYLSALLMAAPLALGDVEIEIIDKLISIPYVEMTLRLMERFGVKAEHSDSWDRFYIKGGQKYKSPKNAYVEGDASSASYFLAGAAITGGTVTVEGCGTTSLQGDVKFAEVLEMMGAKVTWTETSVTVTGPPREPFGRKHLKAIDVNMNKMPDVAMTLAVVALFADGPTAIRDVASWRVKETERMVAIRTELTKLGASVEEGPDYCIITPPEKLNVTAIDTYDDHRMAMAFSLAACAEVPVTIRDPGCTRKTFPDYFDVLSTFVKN

As to `O=C(O)CNCP(=O)(O)O` [glyphosate, N-phosphonomethylglycine], the “(kcat/KM)*KI” value was 116 in test [1] (rapid method repeated, [E] 0.103 uM, [Gly] 100 uM); 133 in test [1] (setting [5]); 10070 in test [2] (PEP as substrate, glyphosate as inhibitor); 91 in test [4] (rapid method repeated, [E] 0.014 uM, [Gly] 10 uM); 111 in test [4] (setting [5]). In addition, the Ki in test [2] is 629 µM. Further, the “root growth of untransformed cotyledons” value in test [3] is recorded as “no growth”.

A word on the Ki: it is a dissociation constant, usually derived from enzyme kinetics or from competition with a known ligand.
